In the METLIN SMRT retention time set (Domingo-Almenara et al. 2019):

test: gradient 5% acetonitrile 3 min, to 50% in 2 min, to 85% in 15 min, held 3 min, 100 µL/min; conditions: column: Zorbax Extend-C18 2.1 x 50 mm; eluents: water / acetonitrile, 0.1% formic acid
Procedure, shortened: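 Mixtures of ~100 pure standards were chromatographed on a Zorbax Extend-C18 column (2.1 × 50 mm, 1.8 μm) at 100 μL/min using water and acetonitrile, each with 0.1% formic acid. Detection used a quadrupole time-of-flight mass spectrometer in positive and negative ionization mode, and data collection spanned 3 months. Retention time was obtained from adduct peaks picked computationally and each checked manually.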

Structure (SMILES)	RP-LC retention time
Cn1ccc2cc(S(=O)(=O)N3CCC(C(=O)N4CCN(c5ccccc5)CC4)CC3)ccc21	963 s
Cc1ccc(C)c(CNC(=O)c2ccc3ncnc(N4CCCC4)c3c2)c1	678 s
COc1ccccc1-c1nc(-c2cn(Cc3ccc(F)cc3)nn2)no1	927 s
CCOCCCNC(=O)C1CCCN(c2nc3ccc(Br)cc3[nH]2)C1 (stereo not given)	625 s
Cc1nc(N)n(CC(=O)N2CCc3ccccc32)c(=O)c1C	616 s
Cc1cc(C)cc(NC(=O)N(C)CC2CCOC2)c1 (stereo not given)	743 s
CC(C)(C)NC(=O)c1ccc(-n2cc(CNC(=O)C3CC3)cn2)cc1	711 s
CCCNc1nc(-c2ccc(C3CCCCC3)cc2)cs1	1170 s
Cc1ccccc1CNC(=O)CN1C(=O)CSc2cccn2-c2ccccc21	916 s
CCOC(=O)N1CCN(C(=O)CCC2CCN(c3cc(NC4CC4)ncn3)CC2)CC1	561 s
COCC(=O)N1CCC2(CC1)NC(=O)N(CCc1ccccc1)C2=O	631 s
Cc1cc(=O)n(CC(=O)NCc2ccc3c(c2)OCO3)c(N2CCOCC2)n1	622 s
NC(=O)C1(N2CCCCC2)CCN(C(=O)c2c(-c3ccccc3)nnc3ccccc23)CC1	588 s
c1ccc(-c2cccc(-c3ccccn3)n2)nc1	608 s
Cc1nn2c(S(=O)(=O)N3CCC(C)CC3)c(C)nc2s1	838 s
O=C(CCC1CCCCC1)Nc1nc(-c2ccc3c(c2)NC(=O)CO3)cs1	1020 s
CCNC(=O)N1CCc2c([nH]c3ccccc23)C12C(=O)N(C)c1ccccc12 (stereo not given)	756 s
COc1ccc(CCNC(=O)COc2cc(=O)n3ccccc3n2)cc1	631 s
CCOC(=O)C1=C(O)C(=O)N(c2ccccc2)C1c1ccccc1 (stereo not given)	881 s
Nc1ncnc(NC2CCCC2)c1[N+](=O)[O-]	679 s
Cc1ccc(NC(=O)N2CCCC(Cn3c(C4CC4)nc4cccnc43)C2)c(C)c1 (stereo not given)	694 s
CC(C)c1cnc2c(c1SCc1cccnc1)c(=O)n(C)c(=O)n2C	691 s
O=C(NCc1ccc(N2CCOCC2)cc1)C1CCCN(c2cnc3nccnc3c2)C1 (stereo not given)	728 s

Structure (SMILES)	RP-LC retention time
CN(CCNC(=O)C1CCCN(c2cnc3nccnc3c2)C1)C1CCCCC1 (stereo not given)	577 s
COc1cccc2nc(NC(=O)c3ccc(Br)s3)sc12	990 s
Cc1cccc(N2CCN(C(=O)C3CCN(C(=O)C4Sc5ccccc5NC4=O)CC3)CC2)c1C (stereo not given)	918 s
Cc1ccc(F)cc1NC(=O)Cn1cnc(C)c(C)c1=O	660 s
CC1=C(C(=O)Nc2cc(Cl)ccc2C(=O)NC2CCC(C)CC2)SCCO1 (stereo not given)	1310 s
O=S(=O)(NCC1(c2cccs2)CCCC1)c1cccnc1	827 s
CCN(CC)CCCNC(=O)C1c2ccccc2C(=O)N2CCc3cc(OC)c(OC)cc3C12 (stereo not given)	597 s
CC(C)Cn1c(=O)c2cc(C(=O)NCc3cccs3)nn2c2ccccc21	995 s
Cc1noc(C)c1S(=O)(=O)N1C[C@@H](F)C[C@H]1C(=O)N1CCCCC1	765 s
Cc1ccc(CNC(=O)C2(C)CCN(S(=O)(=O)c3ccc(Br)s3)CC2)cc1	1050 s
Cc1sc(-n2cccc2)nc1C(=O)N1CCN(c2ccccn2)CC1	623 s
Cc1ccccc1-c1nc2cnccn2c1NCCC(=O)NCc1cccc(Cl)c1	717 s
N#CC1(C(=O)NCCc2ccc(Cl)cc2)CC1	873 s
CC1(C(=O)NC2CCCCC2)Cn2c(ccc2-c2ccco2)C(=O)N1Cc1ccccn1 (stereo not given)	766 s
CCN(CC)S(=O)(=O)c1ccc2c(c1)CC(C(=O)N1CCCCC1)N2C(C)=O (stereo not given)	804 s
Cc1ccc(NC(=O)C2CCN(S(=O)(=O)c3ccc4c(c3)NC(=O)C(C)O4)CC2)cc1Cl (stereo not given)	948 s
CC1(C)C(=O)N(CC(=O)Nc2ccccc2Cl)c2ccccc21	912 s
COc1ccc(NC(=O)NC2CCN(c3ccc(F)cc3)C2=O)cc1F (stereo not given)	781 s
CCc1ccc(CNC(=O)c2cn3c(n2)CCCC3)cc1	646 s
CN1C(=O)c2cc(C(=O)NCc3ccccc3Cl)nn2CC1(C)C(=O)NC1CCCCC1 (stereo not given)	839 s
CN(C)C(=O)c1cn(C2CN(S(=O)(=O)c3ccc4c(c3)CCC4)C2)nn1	774 s
CN1C(=O)c2cccc(NC(=O)c3ccc(S(=O)(=O)N4CCOCC4)cc3)c2C1=O	813 s
O=C(NCC1CCN(C(=O)c2ccccc2F)CC1)C(=O)Nc1ccon1	636 s

Structure (SMILES)	RP-LC retention time
Cc1cc(=O)n(CC(=O)Nc2cccc(C(F)(F)F)c2)c(N2CCOCC2)n1	754 s
Cc1cc(=O)n(CC(=O)Nc2ccccc2F)c(N2CCCC2)n1	616 s
CCOC(=O)C1=CN(CC(=O)NCc2ccc(Cl)cc2)S(=O)(=O)N=C1C	906 s
CN(CC1CCCO1)S(=O)(=O)c1ccc(C(=O)Nc2ccc3sccc3c2)cc1 (stereo not given)	891 s
CC(C)CN1CC(c2nc(-c3ccccc3)no2)C2(CCCC2)C1 (stereo not given)	763 s
CCN(Cc1ccccc1)C(=O)C1CCN(c2ncnc3c2oc2ccccc23)CC1	871 s
Cc1ccccc1CNC(=O)c1cc2n(n1)CCCC2	811 s
O=C(CSc1nc(CC(=O)N2CCN(c3ccccn3)CC2)cs1)c1cccs1	567 s
CCC(CC)C(=O)NCCc1c[nH]c2ccc(C)cc12	860 s
CN(C)S(=O)(=O)N1CCC(F)(c2nc(-c3ccccc3)no2)CC1	1030 s
CNC(=O)c1c(C)c(-c2ccccc2)n(C)c1C	812 s
N#Cc1cccc(NC(=O)C2CCCN(S(=O)(=O)c3c[nH]c(C(=O)N4CCCC4)c3)C2)c1 (stereo not given)	777 s
O=C(C1CCN(c2nn3c(=O)c4c(nc3s2)CCCC4)CC1)N1CCN(c2ncccn2)CC1	672 s
COC(=O)C(C)NC(=O)NC1CCN(C2=NS(=O)(=O)C(c3ccccc3)=C2C)CC1 (stereo not given)	718 s
O=C(Nc1onc2c1CSC2)c1cccc(-n2cnnn2)c1	647 s
O=C(Cn1cnc(-c2nc(-c3ccccc3)cs2)c1)N1CCN(c2ccccc2)CC1	853 s
CCCc1cc(C2CCCN2C(=O)NCc2cccc(OC)c2)no1 (stereo not given)	856 s
CC(C)c1ccc(NC(=O)Cn2cccc2-c2nnc(C3CC3)o2)cc1	961 s
O=C(Nc1ccc(F)cc1Cl)c1c(O)c2cccnc2n(-c2ccc(F)cc2)c1=O	1300 s
CCC(CN1CCOCC1)NC(=O)c1c2c(cn(-c3ccc(F)cc3)c1=O)C(=O)CC(C)(C)C2 (stereo not given)	657 s
COc1ccc(-c2cn3c(CC(=O)Nc4ccc(S(N)(=O)=O)cc4)csc3n2)cc1OC	630 s
Cc1ccc(C(C)NC(=O)Cn2cc(-c3noc(-c4cccnc4)n3)nc2C)cc1 (stereo not given)	715 s
CC(C)C(=O)Nc1cc2c(cc1S(=O)(=O)c1ccccc1)n(C)c(=O)n2C	772 s

Structure (SMILES)	RP-LC retention time
CCCN(Cc1ccc(Cl)cc1)Cc1cc(=O)n2cc(C)ccc2n1	674 s
COCCCNC(=O)C1c2ccccc2CC(=O)N1Cc1ccccc1 (stereo not given)	789 s
CCn1cnc2cc(-c3noc(CNC(=O)c4ccco4)n3)ccc21	588 s
CC(C)c1ccc(-c2nc3ccccc3s2)cc1	958 s
CCOC(=O)CNC(=O)Cn1nc2n(c(=O)c1=O)CCN2c1ccccc1	626 s
Cc1ccc(-n2ccc(=O)c(-c3nc(-c4ccccc4Br)no3)n2)cc1	950 s
Cc1cccc(CN2CCN(C3CCN(C(=O)Nc4ccccc4)CC3)C2=O)c1	851 s
Cc1cc(C)c2[nH]c3c(c(=O)c2c1)CN(CC(=O)NCc1ccccc1F)CC3	626 s
COc1cccc(-c2ccc3nc(N4CCC(C(=O)NC5CC5)CC4)sc3n2)c1	861 s
COc1ccc(OC)c(S(=O)(=O)N2CCn3c(nn(CC4CC4)c3=O)C2)c1	734 s
Cc1sc(C)c(S(=O)(=O)N2CCCCCC2)c1-c1cc(C(F)(F)F)on1	1200 s
Cc1ccc(C)c(NC(=O)CN2CCN(C(=O)Nc3ccc(Br)cc3)CC2=O)c1	789 s
CCn1c(=O)sc2cc(S(=O)(=O)N3CCC(C(=O)NCCC4=CCCCC4)CC3)ccc21	958 s
Cc1cc(C)cc(NS(=O)(=O)c2ccc(-c3c(C)noc3C)cc2)c1	989 s
NC(=O)C1CCN(C(=O)c2ccc3c(c2)CCCN3S(=O)(=O)c2ccc(Cl)cc2)CC1	741 s
O=C1NC2(CCN(C(=O)Nc3ccc(Cl)cc3)CC2)N=C1c1cccc(F)c1	872 s
Cc1cc(N2CCOCC2)nc(N2CCN(C(=O)Cc3ccc(F)cc3)CC2)n1	566 s
COc1ccccc1CNC(=O)C1CCCN(C(=O)C2Sc3ccccc3NC2=O)C1 (stereo not given)	736 s
O=C(CSc1ccncc1)N1CCc2cc(-c3csc(C4CC4)n3)ccc21	723 s
COc1ccc(CC(=O)Nc2c(C(=O)N3CCN(c4ccccn4)CC3)oc3ccccc23)cc1	675 s
O=C(Nc1nc(-c2ccccc2)cs1)c1cncc(Br)c1	998 s
